Assays:
[1] = biological target: T1, CnGnk1 (Gnk1, Gnk1p; formerly IRK3) (Cryptococcus neoformans, UniProt J9VGW6); experiment: 6PGDH-coupled NADPH absorbance at […] nm; format: biochemical; conditions: 1 mM MgCl2, 500 uM NADP+, pH 7.5, 37 C
T1 construct: gene CNAG_03048
T1 sequence (J9VGW6 1-230): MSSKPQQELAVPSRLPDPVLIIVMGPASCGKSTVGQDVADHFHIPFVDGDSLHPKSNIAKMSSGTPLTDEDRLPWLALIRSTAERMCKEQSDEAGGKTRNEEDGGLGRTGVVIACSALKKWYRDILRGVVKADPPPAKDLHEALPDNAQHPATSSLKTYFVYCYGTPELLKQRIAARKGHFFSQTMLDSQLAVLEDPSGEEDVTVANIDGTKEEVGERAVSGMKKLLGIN

[2] = biological target: T1, CnGnk1 (Gnk1, Gnk1p; formerly IRK3); experiment: competition against gluconate, 6PGDH-coupled NADPH absorbance at […] nm; format: biochemical; conditions: 0.5 mM gluconate, competing sugar 10 mM

Structure (SMILES)	% reduction in activity at 10 mM [2]	further results
Nc1ncnc2c1ncn2[C@@H]1O[C@H](COP(=O)(O)OP(=O)(O)OP(=O)(O)O)[C@@H](O)[C@H]1O [ATP]		KM (apparent) ([1]; 10 mM gluconate): 2.6, 95% CI (1.9, 3.7) mM
OC[C@H]1OC(O)[C@H](O)[C@@H](O)[C@H]1O (some centres unmarked) [galactose]	~ 20%	
O=C(O)[C@H](O)[C@@H](O)[C@H](O)[C@H](O)CO [gluconate]		KM (apparent) ([1]; 10 mM ATP): 3.7, 95% CI (2.7, 5.2) mM
OC[C@H]1OC(O)[C@H](O)[C@@H](O)[C@@H]1O (some centres unmarked) [glucose]	~ 40%	
OC[C@@H](O)[C@@H](O)[C@H](O)[C@H](O)CO [mannitol]	~ 20%	
